# From patent US6596320B1, “Method for treating cancer having greater efficacy and reduced adverse effects” (BioNumerik Pharmaceuticals, Inc., priority 2002, dated 2003)
# Tests used:
# MCF7/WT (breast cancer) [1] = assay: Sequential treatment of MCF7/WT with Taxol followed by CDDP, % cell survival; assay type: cell-based, human; conditions: 2 hour
# Protocol: (§1) In vitro experiments were conducted to determine the efficacy of platinum/taxane combination therapy and to determine if the order of administration of the agents affected the cytotoxicity. The agents used were cisplatin (CDDP) and paclitaxel (Taxol®®), and the cell line used was MCF7/WT (breast cancer). The results of the experiments are shown below in Tables 1 and 2.
# MCF7/WT (breast cancer) [2] = assay: Sequential treatment of MCF7/WT with CDDP followed by Taxol, % cell survival; assay type: cell-based, human; conditions: 2 hour
# Protocol: as §1
# [3] = cited from earlier work
smiles,measurement,setting,value
"[NH2][Pt]([NH2])([Cl])[Cl] [CDDP, cisplatin]","% cell survival, Average",MCF7/WT (breast cancer) [1]; CDDP 4.25 uM alone,73%
same,"% cell survival, Average",MCF7/WT (breast cancer) [1]; CDDP 8.5 uM alone,52%
same,"% cell survival, Average",MCF7/WT (breast cancer) [2]; CDDP 4.25 uM alone,71%
same,"% cell survival, Average",MCF7/WT (breast cancer) [2]; CDDP 8.5 uM alone,50%
"O=S(=O)([O-])CCSSCCS(=O)(=O)[O-].[Na+].[Na+] [Dimesna, Disodium 2,2′-dithiobis ethane sulfonate]",interference with cytotoxic effects of co-administered antineoplastic agent(s),[3]; co-administration,not to interfere with the cytotoxic effects
same,effect on unwanted toxic effects of single agent cisplatin and single agent paclitaxel,[3]; human patients,reduce the unwanted toxic effects
"CC(=O)O[C@H]1C(=O)[C@@]2(C)[C@H]([C@H](OC(=O)c3ccccc3)[C@]3(O)C[C@H](OC(=O)[C@H](O)[C@@H](NC(=O)c4ccccc4)c4ccccc4)C(C)=C1C3(C)C)[C@]1(OC(C)=O)CO[C@@H]1C[C@@H]2O [Taxol ®, paclitaxel]","% cell survival, Average",MCF7/WT (breast cancer) [1]; Taxol 27 nM alone,88%
same,"% cell survival, Average",MCF7/WT (breast cancer) [1]; Taxol 45 nM alone,82%
same,"% cell survival, Average",MCF7/WT (breast cancer) [2]; Taxol 27 nM alone,71%
same,"% cell survival, Average",MCF7/WT (breast cancer) [2]; Taxol 45 nM alone,45%
